These results are taken from US20140221283A1 (Indiana University Research and Technology Corporation, priority 2011, published 2014).

*1 amine or outer side, *2 acyl side, *3 side chain or, on linkers, in order; H or OH if unused. Where a SMILES comes first, the peptide text is derived from it. Side-chain parts run from the residue outwards. [ ]: non-standard residue; d: D form. The star is where a group is joined. γGlu = O=C(O)[C@H](CCC(=O)[*:2])N[*:1]; Palmitoyl = CCCCCCCCCCCCCCCC(=O)*; Aib = CC(C)(N)C(=O)O

One experiment deals with T1, glucagon receptor (Homo sapiens, UniProt P47871).
T1 construct: expressed in transfected cells; host or cells: HEK293
Description: firefly luciferase-based cAMP reporter assay, HEK293 cells co-transfected with glucagon receptor (Example 3). The conditions noted are these: procedure of Example 3. It counts as cell-based. How it is done:
(§1) The ability of each peptide to induce cAMP was measured in a firefly luciferase-based reporter assay.
(§2) At the end of the incubation, 100 μL of LucLite luminescence substrate reagent (Perkin Elmer, Wellesley, Mass.) were added to each well.

Another experiment has as its target T2, GIP receptor (Homo sapiens, UniProt P48546).
T2 construct: expressed in transfected cells; host or cells: HEK293
T2 sequence (P48546 22-466): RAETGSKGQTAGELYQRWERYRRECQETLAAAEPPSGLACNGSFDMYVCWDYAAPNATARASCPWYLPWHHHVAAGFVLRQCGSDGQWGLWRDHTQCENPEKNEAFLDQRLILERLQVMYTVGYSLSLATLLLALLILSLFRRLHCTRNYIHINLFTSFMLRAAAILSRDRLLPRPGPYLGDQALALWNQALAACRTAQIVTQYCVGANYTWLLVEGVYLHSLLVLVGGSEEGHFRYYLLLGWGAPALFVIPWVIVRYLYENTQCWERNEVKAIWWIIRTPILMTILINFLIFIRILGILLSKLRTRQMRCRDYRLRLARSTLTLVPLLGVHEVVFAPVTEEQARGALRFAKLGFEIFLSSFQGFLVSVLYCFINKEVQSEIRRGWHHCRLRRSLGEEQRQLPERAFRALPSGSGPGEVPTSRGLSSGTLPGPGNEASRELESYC
Description: firefly luciferase-based cAMP reporter assay, HEK293 cells, GIP receptor (Example 3). It counts as cell-based. The settings on record: procedure of Example 3. The procedure: It is understood that a lower EC50 indicates higher activity or potency at the receptor.
as §1, §2
In some instances, the in vitro agonist activity at the GIP receptor was also tested.
(In general: In a reporter assay the amount or activity of a reporter protein is the signal.)

For a further experiment, the target named is human GLP-1R (Homo sapiens, UniProt P43220). Description: firefly luciferase-based cAMP reporter assay, HEK293 cells co-transfected with GLP-1 receptor (Example 3). Type of experiment: cell-based. The conditions noted are these: procedure of Example 3. Further details: expressed in transfected cells; host or cells: HEK293. The procedure: as §1, §2
Experiment [1] in a line: body weight of diet-induced obese (DIO) mice dosed daily for nine days (Example 7). Type of experiment: in vivo. The settings on record: Day 9. The procedure: Mice were administered a vehicle control or a dose of a peptide daily for nine days. The peptides tested in this study included a peptide of SEQ ID NO: 12, a peptide of SEQ ID NO: 17, a peptide of SEQ ID NO: 18, and a peptide of SEQ ID NO: 19. Doses of each peptide were varied—each of the peptides of SEQ ID NO: 12, 17, and 19 was administered at a dose of either 3 nmol/kg or 9 nmol/kg, while the peptide of SEQ ID NO: 18 was administered at a dose of 1 nmol/kg, 3 nmol/kg, or 9 nmol/kg. Data are expressed as mean±SEM.

T1 sequence (P47871 26-477): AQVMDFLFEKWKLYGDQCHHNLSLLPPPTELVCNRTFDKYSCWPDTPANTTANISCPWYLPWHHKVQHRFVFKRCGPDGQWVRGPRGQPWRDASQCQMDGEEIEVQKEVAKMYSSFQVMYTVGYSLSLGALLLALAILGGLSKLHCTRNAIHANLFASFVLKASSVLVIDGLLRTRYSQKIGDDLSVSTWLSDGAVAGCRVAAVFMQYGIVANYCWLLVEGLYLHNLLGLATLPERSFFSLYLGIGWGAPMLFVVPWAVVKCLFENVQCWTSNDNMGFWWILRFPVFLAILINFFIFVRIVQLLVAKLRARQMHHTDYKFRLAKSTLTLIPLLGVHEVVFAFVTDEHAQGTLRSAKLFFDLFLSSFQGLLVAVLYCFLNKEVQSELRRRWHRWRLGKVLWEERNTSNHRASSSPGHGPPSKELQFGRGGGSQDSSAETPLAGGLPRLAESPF
Sequence of human GLP-1R (P43220 24-463): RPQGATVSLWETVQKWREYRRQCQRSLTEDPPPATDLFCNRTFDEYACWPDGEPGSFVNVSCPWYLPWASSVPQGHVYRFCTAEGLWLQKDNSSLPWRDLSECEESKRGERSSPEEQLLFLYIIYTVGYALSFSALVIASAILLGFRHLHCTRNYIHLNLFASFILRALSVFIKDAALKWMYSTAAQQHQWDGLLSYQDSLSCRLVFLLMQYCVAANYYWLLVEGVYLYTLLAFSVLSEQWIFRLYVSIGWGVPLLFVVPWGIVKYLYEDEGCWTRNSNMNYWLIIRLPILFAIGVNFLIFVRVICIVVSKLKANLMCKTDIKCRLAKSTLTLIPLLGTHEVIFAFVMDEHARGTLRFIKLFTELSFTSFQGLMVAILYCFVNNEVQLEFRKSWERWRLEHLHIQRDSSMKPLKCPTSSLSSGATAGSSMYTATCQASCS

In general, EC50 refers to the concentration needed to bring the measured effect to its halfway point. Consider `CCCCCCCCCCCCCCCC(=O)N[C@@H](CCC(=O)N[C@@H](CCC(=O)NCCCC[C@H](NC(=O)[C@H](CC(=O)O)NC(=O)[C@H](CO)NC(=O)[C@@H](NC(=O)[C@H](Cc1ccccc1)NC(=O)[C@@H](NC(=O)CNC(=O)[C@H](CCC(N)=O)NC(=O)C(C)(C)NC(=O)[C@@H](N)Cc1c[nH]cn1)[C@@H](C)O)[C@@H](C)O)C(=O)N[C@@H](CO)C(=O)N[C@@H](CCCCN)C(=O)N[C@@H](Cc1ccc(O)cc1)C(=O)N[C@@H](CC(C)C)C(=O)N[C@@H](CC(=O)O)C(=O)NC(C)(C)C(=O)N[C@@H](CCCNC(=N)N)C(=O)N[C@@H](C)C(=O)N[C@@H](C)C(=O)N[C@@H](CCC(N)=O)C(=O)N[C@@H](CC(=O)O)C(=O)N[C@@H](Cc1ccccc1)C(=O)N[C@H](C(=O)N[C@@H](CCC(N)=O)C(=O)N[C@@H](Cc1c[nH]c2ccccc12)C(=O)N[C@@H](CC(C)C)C(=O)N[C@@H](CC(C)C)C(=O)N[C@@H](CC(=O)O)C(=O)N[C@H](C(=O)N[C@@H](CCCCN)C(=O)N[C@@H](CCC(N)=O)C(=O)O)[C@@H](C)O)C(C)C)C(=O)O)C(=O)O` [SEQ ID NO: 16] (H-H[Aib]QGTFTSDK([γGlu-γGlu-Palmitoyl])SKYLD[Aib]RAAQDFVQWLLDTKQ-OH; N-terminus assumed), for which the EC50 amounted to 15 pM at glucagon receptor, 1.04 nM at GIP receptor and 19 pM on human GLP-1R.

On to `CCCCCCCCCCCCCCCC(=O)N[C@@H](CCC(=O)N[C@@H](CCC(=O)NCCCC[C@H](NC(=O)[C@H](CC(=O)O)NC(=O)[C@H](CO)NC(=O)[C@@H](NC(=O)[C@H](Cc1ccccc1)NC(=O)[C@@H](NC(=O)CNC(=O)[C@H](CCC(N)=O)NC(=O)C(C)(C)NC(=O)[C@@H](N)Cc1c[nH]cn1)[C@@H](C)O)[C@@H](C)O)C(=O)N[C@@H](CO)C(=O)N[C@@H](CCCCN)C(=O)N[C@@H](Cc1ccc(O)cc1)C(=O)N[C@@H](CC(C)C)C(=O)N[C@@H](CC(=O)O)C(=O)NC(C)(C)C(=O)N[C@@H](CCCNC(=N)N)C(=O)N[C@@H](C)C(=O)N[C@@H](C)C(=O)N[C@@H](CCC(N)=O)C(=O)N[C@@H](CC(=O)O)C(=O)N[C@@H](Cc1ccccc1)C(=O)N[C@H](C(=O)N[C@@H](CCC(N)=O)C(=O)N[C@@H](Cc1c[nH]c2ccccc12)C(=O)N[C@@H](CC(C)C)C(=O)N[C@@H](CCSC)C(=O)N[C@@H](CC(=O)O)C(=O)N[C@H](C(=O)N[C@@H](CCCCN)C(=O)N[C@@H](CCC(N)=O)C(=O)O)[C@@H](C)O)C(C)C)C(=O)O)C(=O)O` [SEQ ID NO: 12] (H-H[Aib]QGTFTSDK([γGlu-γGlu-Palmitoyl])SKYLD[Aib]RAAQDFVQWLMDTKQ-OH; N-terminus assumed), for which the values for the EC50 at glucagon receptor, on GIP receptor and on human GLP-1R were 10 pM, 12.8 nM and 3 pM, respectively. In experiment [1] (3 nmol/kg daily), this molecule displayed a body weight reduction of approximately 5.3%. The body weight loss in experiment [1] (9 nmol/kg daily) is reported as approximately 29.8%.
